Tested on: NCI-H929 complex spheroids, viability % test/control
Test: Anticancer human tumor NCI-H929 cell line growth inhibition [RAS];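 further: compound exposure lasted seven days before viability was read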;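 on viability, T/C: 100% = DMSO vehicle control viability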
Settings: for IC50: curve of first compound; for viability, T/C: stronger effect = lower value
How it was run: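 Multi-cell-type spheroids: tumor cells plus HUVEC endothelial cells and mesenchymal stem cells. RAS-pathway inhibitors were combined with targeted agents, each dosed in half-log steps down from clinical Cmax, or from 10 microM when Cmax was unknown.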

[1] = second compound 0.000949 µM, first compound 0.0316 µM
[2] = second compound 0.000949 µM, first compound 0.1 µM
[3] = second compound 0.000949 µM, first compound 0.316 µM
[4] = second compound 0.000949 µM, first compound 1 µM
[5] = second compound 0.000949 µM, first compound 3.16 µM
[6] = second compound 0.000949 µM, first compound 10 µM
[7] = second compound 0.003 µM, first compound 0.0316 µM
[8] = second compound 0.003 µM, first compound 0.1 µM
[9] = second compound 0.003 µM, first compound 0.316 µM
[10] = second compound 0.003 µM, first compound 1 µM
[11] = second compound 0.003 µM, first compound 3.16 µM
[12] = second compound 0.003 µM, first compound 10 µM
[13] = second compound 0.00949 µM, first compound 0.0316 µM
[14] = second compound 0.00949 µM, first compound 0.1 µM
[15] = second compound 0.00949 µM, first compound 0.316 µM
[16] = second compound 0.00949 µM, first compound 1 µM
[17] = second compound 0.00949 µM, first compound 3.16 µM
[18] = second compound 0.00949 µM, first compound 10 µM
[19] = second compound 0.03 µM, first compound 0.0316 µM
[20] = second compound 0.03 µM, first compound 0.1 µM
[21] = second compound 0.03 µM, first compound 0.316 µM
[22] = second compound 0.03 µM, first compound 1 µM
[23] = second compound 0.03 µM, first compound 3.16 µM
[24] = second compound 0.03 µM, first compound 10 µM
[25] = second compound 0.0949 µM, first compound 0.0316 µM
[26] = second compound 0.0949 µM, first compound 0.1 µM
[27] = second compound 0.0949 µM, first compound 0.316 µM
[28] = second compound 0.0949 µM, first compound 1 µM
[29] = second compound 0.0949 µM, first compound 3.16 µM
[30] = second compound 0.0949 µM, first compound 10 µM
[31] = second compound 0.3 µM, first compound 0.0316 µM
[32] = second compound 0.3 µM, first compound 0.1 µM
[33] = second compound 0.3 µM, first compound 0.316 µM
[34] = second compound 0.3 µM, first compound 1 µM
[35] = second compound 0.3 µM, first compound 3.16 µM
[36] = second compound 0.3 µM, first compound 10 µM

Q: For `CC1(O)CCCC1n1c(=O)c(C(F)F)cc2cnc(NC3CCN(S(C)(=O)=O)CC3)nc21` (centres undefined) + CCn1c(-c2cc(N3CCN(C)CC3)cnc2C(C)OC)c2c3cc(ccc31)-c1csc(n1)CC(NC(=O)C1CC1C)C(=O)N1CCCC(N1)C(=O)OCC(C)(C)C2, which IC50 (second compound 0.000949 µM) is on record?
A: 188 nM

Q: And the IC50 (second compound 0.003 µM)?
A: 191 nM

Q: And the IC50 (second compound 0.00949 µM)?
A: 200 nM

Q: And the IC50 (second compound 0.03 µM)?
A: 57.5 nM

Q: And the IC50 (second compound 0.0949 µM)?
A: < 31.6 nM

Q: And the IC50 (second compound 0.3 µM)?
A: < 31.6 nM

Q: What about the viability, T/C [1] of the same compound?
A: 109%

Q: And the viability, T/C [2]?
A: 106%

Q: And the viability, T/C [3]?
A: 3.79%

Q: And the viability, T/C [4]?
A: 4.11%

Q: What about the viability, T/C [5] of the same compound?
A: 3.8%

Q: What about the viability, T/C [6] of the same compound?
A: 0.15%

Q: What about the viability, T/C [7] of the same compound?
A: 103%

Q: What about the viability, T/C [8] of the same compound?
A: 115%

Q: And the viability, T/C [9]?
A: 2.16%

Q: What about the viability, T/C [10] of the same compound?
A: 7.09%

Q: And the viability, T/C [11]?
A: 7.23%

Q: What about the viability, T/C [12] of the same compound?
A: 0.06%

Q: And the viability, T/C [13]?
A: 113%

Q: What about the viability, T/C [14] of the same compound?
A: 117%

Q: What about the viability, T/C [15] of the same compound?
A: 4.34%

Q: And the viability, T/C [16]?
A: 14.1%

Q: What about the viability, T/C [17] of the same compound?
A: 8.7%

Q: What about the viability, T/C [18] of the same compound?
A: 0.05%

Q: What about the viability, T/C [19] of the same compound?
A: 72.2%

Q: What about the viability, T/C [20] of the same compound?
A: 29.5%

Q: And the viability, T/C [21]?
A: 4.66%

Q: What about the viability, T/C [22] of the same compound?
A: 9.27%

Q: What about the viability, T/C [23] of the same compound?
A: 2.06%

Q: And the viability, T/C [24]?
A: 0.13%

Q: What about the viability, T/C [25] of the same compound?
A: 6.97%

Q: And the viability, T/C [26]?
A: 4.65%

Q: What about the viability, T/C [27] of the same compound?
A: 3.2%

Q: And the viability, T/C [28]?
A: 2.92%

Q: And the viability, T/C [29]?
A: 0.85%

Q: And the viability, T/C [30]?
A: 0.09%

Q: And the viability, T/C [31]?
A: 3.5%

Q: What about the viability, T/C [32] of the same compound?
A: 2.32%

Q: What about the viability, T/C [33] of the same compound?
A: 2.57%

Q: What about the viability, T/C [34] of the same compound?
A: 1.68%

Q: What about the viability, T/C [35] of the same compound?
A: 0.72%

Q: What about the viability, T/C [36] of the same compound?
A: 8.23%

Q: Which results are given for `Cc1nc(N2CCC3(CC2)COC(C)C3N)c(CO)nc1Sc1ccnc(N)c1Cl` (centres undefined) + CCn1c(-c2cc(N3CCN(C)CC3)cnc2C(C)OC)c2c3cc(ccc31)-c1csc(n1)CC(NC(=O)C1CC1C)C(=O)N1CCCC(N1)C(=O)OCC(C)(C)C2?
A: IC50 (second compound 0.000949 µM): > 10000 nM; IC50 (second compound 0.003 µM): > 10000 nM; IC50 (second compound 0.00949 µM): > 10000 nM; IC50 (second compound 0.03 µM): < 31.6 nM; IC50 (second compound 0.0949 µM): < 31.6 nM; IC50 (second compound 0.3 µM): < 31.6 nM; viability, T/C [1]: 104%; viability, T/C [2]: 96.9%; viability, T/C [3]: 108%; viability, T/C [4]: 105%; viability, T/C [5]: 113%; viability, T/C [6]: 108%; viability, T/C [7]: 101%; viability, T/C [8]: 102%; viability, T/C [9]: 104%; viability, T/C [10]: 107%; viability, T/C [11]: 110%; viability, T/C [12]: 107%; viability, T/C [13]: 118%; viability, T/C [14]: 123%; viability, T/C [15]: 118%; viability, T/C [16]: 124%; viability, T/C [17]: 88.4%; viability, T/C [18]: 119%; viability, T/C [19]: 31.8%; viability, T/C [20]: 25.4%; viability, T/C [21]: 27.2%; viability, T/C [22]: 27.8%; viability, T/C [23]: 24.9%; viability, T/C [24]: 19.7%; viability, T/C [25]: 6.44%; viability, T/C [26]: 6.29%; viability, T/C [27]: 4.23%; viability, T/C [28]: 5.24%; viability, T/C [29]: 4.2%; viability, T/C [30]: 2.67%; viability, T/C [31]: 4.38%; viability, T/C [32]: 3.24%; viability, T/C [33]: 2.87%; viability, T/C [34]: 3.05%; viability, T/C [35]: 2.74%; viability, T/C [36]: 1.82%

— PubChem BioAssay AID2060884 (Molecular Pharmacology Branch, DTP, NCI, 2025)
